# Assay results from patent US11684589B2, “Pharmaceutical compositions for use in the therapy of blepharitis” (NOVALIQ GMBH, priority 2016, dated 2023).
# What was measured:
# Type in all cases: in vivo, patients
# [1] = test system: posterior blepharitis; assay: Assessment of posterior blepharitis severity in observational patient study; conditions: for Posterior blepharitis shift table, changes from baseline for both eyes: 7 weeks
# Method: (§1) A prospective, uncontrolled, open-label, multi-center observational study was conducted with a total of 72 (53 female, 19 male) patients included, with 1 to 20 patients per site. Two patients were lost for follow-up during the study. Patients to be included had to fulfill following criteria: • Males or females≥18 years of age; • Patients with symptoms as determined by • Tear Film Break-Up Time (TFBUT)≤10 s • Ocular Surface Disease Index≥16 and ≤55 • Schirmer I Test≥2 mm (recorded within 5 min) • Sum of peripheral corneal and conjunctival staining grade≤10 (Oxford) • Altered secretion and expressibility of the meibomian glands. Among those, patients fulfilling the following criteria were not included in the study: • Known hypersensitivity to any of the components of NovaTears®; • Contact lens wear, pregnancy, or breast feeding; • Presence of dry eye disease (DED) caused by any other known underlying systemic disease; • Planned ophthalmologic surgical procedure during the course of the study; • Use of lipid-containing or tear-film stabilizing eye drops/sprays except cyclosporin formulations. Patients selected as described above were administered 1-perfluorohexyloctane (F6H8) eye drops, manufactured under the tradename “NovaTears®” (Novaliq GmbH, Heidelberg, Germany) for a period of 7 weeks. Said formulation consists essentially of 1-perfluorohexyloctane (F6H8), it is water-free and contains no additional preservatives or ingredients. A dose of 3 to 4 droplets (corresponding to 40 μl, 10 μl per drop) per eye and day were administered topically to the eye, with 1 droplet being administered as a single dose. NovaTears® single droplets were administered directly to the surface of the eye into a pocket that was formed by gently pulling down the lower eyelid. Assessment of the eyes treated was performed once before the start of NovaTears® administration (baseline) and once after 7 weeks of treatment (follow-up). Anterior blepharitis involves inflammation of the lid margin anterior to the gray line and is usually concentrated around the eyelashes and follicles. Posterior blepharitis involves inflammation of the posterior lid margin. The severity of anterior and posterior blepharitis was rated separately for each eye by selecting one of the following ratings: “none”, “+”, “++”, “+++” (with “+++” indicating most severe blepharitis anterior or posterior).
# [2] = test system: abnormal lid margin features; assay: Lid margin assessment (abnormal lid margin features) in observational patient study
# Method: A prospective, uncontrolled, open-label, multi-center observational study was conducted with a total of 72 (53 female, 19 male) patients included, with 1 to 20 patients per site. Two patients were lost for follow-up during the study. Patients to be included had to fulfill following criteria: • Males or females≥18 years of age; • Patients with symptoms as determined by • Tear Film Break-Up Time (TFBUT)≤10 s • Ocular Surface Disease Index≥16 and ≤55 • Schirmer I Test≥2 mm (recorded within 5 min) • Sum of peripheral corneal and conjunctival staining grade≤10 (Oxford) • Altered secretion and expressibility of the meibomian glands.
# Among those, patients fulfilling the following criteria were not included in the study: • Known hypersensitivity to any of the components of NovaTears®; • Contact lens wear, pregnancy, or breast feeding; • Presence of dry eye disease (DED) caused by any other known underlying systemic disease; • Planned ophthalmologic surgical procedure during the course of the study; • Use of lipid-containing or tear-film stabilizing eye drops/sprays except cyclosporin formulations.
# Patients selected as described above were administered 1-perfluorohexyloctane (F6H8) eye drops, manufactured under the tradename “NovaTears®” (Novaliq GmbH, Heidelberg, Germany) for a period of 7 weeks. Said formulation consists essentially of 1-perfluorohexyloctane (F6H8), it is water-free and contains no additional preservatives or ingredients. A dose of 3 to 4 droplets (corresponding to 40 μl, 10 μl per drop) per eye and day were administered topically to the eye, with 1 droplet being administered as a single dose. NovaTears® single droplets were administered directly to the surface of the eye into a pocket that was formed by gently pulling down the lower eyelid. Assessment of the eyes treated was performed once before the start of NovaTears® administration (baseline) and once after 7 weeks of treatment (follow-up).
# Lid Margin Assessment As a further parameter abnormal lid margin features, such as teleangiectasia, plugging and lid swelling were assessed in the study. Assessment was performed for each eye separately.
# [3] = test system: anterior blepharitis; assay: Assessment of anterior blepharitis severity in observational patient study; conditions: for Anterior blepharitis shift table, changes from baseline for both eyes: 7 weeks
# Method: as §1
# [4] = 7 weeks of treatment, 3 to 4 droplets per eye and day, including patients with scores ++ and +
structure (smiles),measurement,setting,value
CCCCCCCCC(F)(F)C(F)(F)C(F)(F)C(F)(F)C(F)(F)C(F)(F)F [1-perfluorohexyloctane],Severity of posterior blepharitis after treatment,[1]; [4],decreased for all patients
same,"Posterior blepharitis shift table, changes from baseline for both eyes","[1]; baseline 0 (none), follow-up 0 (none)",26 eyes
same,"Posterior blepharitis shift table, changes from baseline for both eyes","[1]; baseline 0 (none), follow-up +++",0 eyes
same,"Posterior blepharitis shift table, changes from baseline for both eyes","[1]; baseline 0 (none), follow-up ++",0 eyes
same,"Posterior blepharitis shift table, changes from baseline for both eyes","[1]; baseline 0 (none), follow-up +",5 eyes
same,"Posterior blepharitis shift table, changes from baseline for both eyes","[1]; baseline +++, follow-up 0 (none)",4 eyes
same,"Posterior blepharitis shift table, changes from baseline for both eyes","[1]; baseline +++, follow-up +++",0 eyes
same,"Posterior blepharitis shift table, changes from baseline for both eyes","[1]; baseline +++, follow-up ++",0 eyes
same,"Posterior blepharitis shift table, changes from baseline for both eyes","[1]; baseline +++, follow-up +",2 eyes
same,"Posterior blepharitis shift table, changes from baseline for both eyes","[1]; baseline ++, follow-up 0 (none)",10 eyes
same,"Posterior blepharitis shift table, changes from baseline for both eyes","[1]; baseline ++, follow-up +++",0 eyes
same,"Posterior blepharitis shift table, changes from baseline for both eyes","[1]; baseline ++, follow-up ++",8 eyes
same,"Posterior blepharitis shift table, changes from baseline for both eyes","[1]; baseline ++, follow-up +",14 eyes
same,"Posterior blepharitis shift table, changes from baseline for both eyes","[1]; baseline +, follow-up 0 (none)",20 eyes
same,"Posterior blepharitis shift table, changes from baseline for both eyes","[1]; baseline +, follow-up +++",0 eyes
same,"Posterior blepharitis shift table, changes from baseline for both eyes","[1]; baseline +, follow-up ++",3 eyes
same,"Posterior blepharitis shift table, changes from baseline for both eyes","[1]; baseline +, follow-up +",30 eyes
same,"Assessment of posterior blepharitis, grade +++","[1]; follow-up after 7 weeks of treatment, 122 eyes from 61 patients, baseline 6",0 eyes
same,"Assessment of posterior blepharitis, grade none","[1]; follow-up after 7 weeks of treatment, 122 eyes from 61 patients, baseline 31",60 eyes
same,"Assessment of posterior blepharitis, grade ++","[1]; follow-up after 7 weeks of treatment, 122 eyes from 61 patients, baseline 32",11 eyes
same,"Assessment of posterior blepharitis, grade +","[1]; follow-up after 7 weeks of treatment, 122 eyes from 61 patients, baseline 53",51 eyes
same,Reduction in the severity of posterior blepharitis after treatment,[1]; patients with the most severe posterior blepharitis rated +++,most significant reduction
same,"Abnormal lid margin features (teleangiectasia, plugging, lid swelling) after treatment",[2]; 7 weeks of treatment,significantly reduced
same,"Assessment of lid margin, Lid Swelling","[2]; follow-up after 7 weeks of treatment, assessed for each eye separately, baseline 30",20
same,"Assessment of lid margin, Teleangiectasia","[2]; follow-up after 7 weeks of treatment, assessed for each eye separately, baseline 74",49
same,"Assessment of lid margin, Plugging","[2]; follow-up after 7 weeks of treatment, assessed for each eye separately, baseline 90",59
same,Severity of anterior blepharitis after treatment,[3]; [4],decreased for all patients
same,"Anterior blepharitis shift table, changes from baseline for both eyes","[3]; baseline +++, follow-up +++",0 eyes
same,"Anterior blepharitis shift table, changes from baseline for both eyes","[3]; baseline +++, follow-up ++",0 eyes
same,"Anterior blepharitis shift table, changes from baseline for both eyes","[3]; baseline +++, follow-up +",0 eyes
same,"Anterior blepharitis shift table, changes from baseline for both eyes","[3]; baseline +++, follow-up none",0 eyes
same,"Anterior blepharitis shift table, changes from baseline for both eyes","[3]; baseline ++, follow-up +++",0 eyes
same,"Anterior blepharitis shift table, changes from baseline for both eyes","[3]; baseline ++, follow-up ++",4 eyes
same,"Anterior blepharitis shift table, changes from baseline for both eyes","[3]; baseline ++, follow-up +",7 eyes
same,"Anterior blepharitis shift table, changes from baseline for both eyes","[3]; baseline ++, follow-up none",4 eyes
same,"Anterior blepharitis shift table, changes from baseline for both eyes","[3]; baseline +, follow-up +++",0 eyes
same,"Anterior blepharitis shift table, changes from baseline for both eyes","[3]; baseline +, follow-up ++",1 eyes
same,"Anterior blepharitis shift table, changes from baseline for both eyes","[3]; baseline +, follow-up +",20 eyes
same,"Anterior blepharitis shift table, changes from baseline for both eyes","[3]; baseline +, follow-up none",38 eyes
same,"Anterior blepharitis shift table, changes from baseline for both eyes","[3]; baseline none, follow-up +++",0 eyes
same,"Anterior blepharitis shift table, changes from baseline for both eyes","[3]; baseline none, follow-up ++",2 eyes
same,"Anterior blepharitis shift table, changes from baseline for both eyes","[3]; baseline none, follow-up +",15 eyes
same,"Anterior blepharitis shift table, changes from baseline for both eyes","[3]; baseline none, follow-up none",31 eyes
same,"Assessment of anterior blepharitis, grade +++","[3]; follow-up after 7 weeks of treatment, 122 eyes from 61 patients, baseline 0",0 eyes
same,"Assessment of anterior blepharitis, grade ++","[3]; follow-up after 7 weeks of treatment, 122 eyes from 61 patients, baseline 15",7 eyes
same,"Assessment of anterior blepharitis, grade none","[3]; follow-up after 7 weeks of treatment, 122 eyes from 61 patients, baseline 48",73 eyes
same,"Assessment of anterior blepharitis, grade +","[3]; follow-up after 7 weeks of treatment, 122 eyes from 61 patients, baseline 59",42 eyes
